Results reported in patent US20160279095A1, “USE OF NUTRITIONAL COMPOSITIONS INCLUDING NATURAL VITAMIN E, AND POLYUNSATURATED FATTY ACID” (ABBOTT LABORATORIES, priority 2013, published 2016).

System: Primary cortical neurons
Assay: DHA peroxidation in primary cortical neurons, MDA levels measured by LC-MS
Assay type: cell-based, Sprague-Dawley rat
Conditions: for MDA concentration (DHA peroxidation): by LCMS/MS
Description: Primary cortical neurons from postnatal day 3-5 (P3-P5) Sprague-Dawley rat pup's brain were pretreated with/without natural vitamin E in the form of RRR-a-tocopherol (15 μM or 45 μM), and/or lutein (0.32 nM or 0.5 nM) individually and in combination for 12 hours. (Note that μM is used to refer to a micromolar concentration and nM is used to refer to a nanomolar concentration and concentrations refer to those reached in the test tubes containing the cortical neurons.) After 12 hours DHA (90 μM) was added for an additional 12 hours. After 12 hours samples were washed in PS and neurons were lysed. Peroxides generated from DHA and incorporated into the neuronal cell membrane were assessed by measuring the MDA levels using liquid chromatography-mass spectometry (LC-MS) method.

CC/C=C\C/C=C\C/C=C\C/C=C\C/C=C\C/C=C\CCC(=O)O [DHA, docosahexaenoic acid]
MDA concentration (DHA peroxidation) (DHA 90 μM for 12 hours, without either RRR alpha tocopherol or lutein): about 110

Cc1c(C)c2c(c(C)c1O)CC[C@@](C)(CCC[C@H](C)CCC[C@H](C)CCCC(C)C)O2 [RRR alpha tocopherol, RRR-alpha tocopherol]
MDA concentration (DHA peroxidation) (15 μM RRR alpha tocopherol pretreatment 12 hours, then DHA 90 μM 12 hours): about 75% | MDA concentration (DHA peroxidation) (45 μM RRR alpha tocopherol pretreatment 12 hours, then DHA 90 μM 12 hours, p<0.001): about 57%

CC1=C[C@H](O)CC(C)(C)[C@H]1/C=C/C(C)=C/C=C/C(C)=C/C=C/C=C(C)/C=C/C=C(C)/C=C/C1=C(C)C[C@@H](O)CC1(C)C [lutein]
effect on retarding DHA peroxidation (lutein alone, without RRR alpha tocopherol, then DHA 90 μM): essentially no effect
